This note sets out measurements from ChEMBL document CHEMBL4706629, “New derivatives of 4'-phenyl-2,2':6',2″-terpyridine as promising anticancer agents” (Eur J Med Chem, 2021).

Calls of active or inactive are those of the source. The rule behind the calls is not given here.

Data set [1] in a line: Dark toxicity in human HeLa cells assessed as reduction in cell viability measured after 4 hrs by resazurin dye based fluorescence assay.
The next data set relates to HCT-116. Put plainly: Cytotoxicity against human HCT-116 cells assessed as reduction in cell viability measured after 72 hrs by MTS assay. Type of data set: functional, cell-based. Conditions: HCT-116, 72 h.
Another data set deals with K562. Put plainly: Cytotoxicity against human K562 cells assessed as reduction in cell viability measured after 72 hrs by MTS assay. The following applies: K562, 72 h. Type of data set: functional, cell-based. Background: Tetrazolium dyes change colour on reduction, which living cells bring about.
In the next data set the test system is U-251. Nature of the data set: Cytotoxicity against human U-251 cells assessed as reduction in cell viability measured after 72 hrs by MTS assay. Format: functional, cell-based. The following applies: U-251, 72 h.
Data set [2] is described as follows: Drug localization in mitochondria of human MCF7 cells at 25 uM measured after 2 hrs by mitotracker orange dye based microscopic analysis. Type of data set: ADME. The following applies: mcf7, 2 h.
Data set [3] relates to MCF7. Nature of the data set: Cytotoxicity against human MCF7 cells assessed as reduction in cell viability measured after 72 hrs by MTS assay. Type of data set: functional, cell-based. The following applies: MCF7, 72 h.
In a further data set the test system is NHDF. Nature of the data set: Cytotoxicity against NHDF cells assessed as reduction in cell viability measured after 72 hrs by MTS assay. Conditions: Homo sapiens. Format: cell-based.
The test system of data set [4] is PANC-1. Put plainly: Cytotoxicity against human PANC-1 cells assessed as reduction in cell viability measured after 72 hrs by MTS assay. Format: functional, cell-based. The following applies: PANC-1, 72 h.
Data set [5] is described as follows: Drug localization in lysosomes of human MCF7 cells at 25 uM measured after 2 hrs by lysotracker red DND-99 dye based microscopic analysis. Type of data set: ADME, subcellular, Lysosome. The following applies: mcf7, 2 h.
Data set [6] deals with PANC-1. Put plainly: Induction of autophagy in human PANC-1 cells assessed as increase in LC3 expression at 25 uM measured after 24 hrs by muse cell analyzer based fluorescence assay relative to control. Type of data set: functional.
Data set [7] has as its system MCF7. Nature of the data set: Up regulation of p53 expression in human MCF7 cells at 5 uM measured after 24 hrs by Western blot analysis. Format: functional, cell-based.
In data set [8] the test system is PANC-1. Put plainly: Up regulation of p53 expression in human PANC-1 cells at 5 uM measured after 24 hrs by Western blot analysis relative to control. Format: functional, cell-based. (A western blot detects proteins with antibodies after separation by electrophoresis.)

As a reminder, the IC50 is the concentration needed to halve the response being measured.

As to `O=C(O)c1cc(-c2cccnc2)nc(-c2ccccn2)c1`, the IC50 at 4 h in [1] was 50500 nM.

`CC1(C)c2ccccc2-c2ccc(-c3cn(-c4ccc(-c5cc(-c6ccccn6)nc(-c6ccccn6)c5)cc4)nn3)cc21`: the IC50 in the data set with HCT-116 was 1290 nM; in the data set with K562 it was 625 nM; in the data set on U-251 it was 1880 nM; in the data set with MCF7 [3], 1070 nM; with NHDF, greater than 25000 nM; in the data set on PANC-1 [4], 1870 nM. The Drug uptake result in data set [2] and in data set [5] was “Active” in each case.

With `c1ccc(-c2cn(-c3ccc(-c4cc(-c5ccccn5)nc(-c5ccccn5)c4)cc3)nn2)cc1`, the IC50 in the data set with HCT-116 was 249 nM; in the data set with K562, 741 nM; in the data set on U-251 it was 955 nM; with MCF7 [3] it was 477 nM; in the data set with NHDF it was greater than 25000 nM; with PANC-1 [4], 287 nM.

Turning to `CCCCCCCCCCn1cc(-c2ccc(-c3cc(-c4nccs4)nc(-c4nccs4)c3)cc2)nn1`, the IC50 in the data set with HCT-116, in the data set on K562, with U-251, with MCF7 [3] and in the data set on PANC-1 [4] was greater than 25000 nM throughout.

As to `Oc1cn(-c2ccc(-c3cc(-c4ccccn4)nc(-c4ccccn4)c3)cc2)nn1`, the IC50 stood at 782 nM in the data set with HCT-116; 1310 nM with K562; 1400 nM with U-251; 592 nM in the data set with MCF7 [3]; 11800 nM in the data set on NHDF; 689 nM in the data set with PANC-1 [4].

Turning to `CCCCCCCCCCn1cc(-c2ccc(-c3cc(-c4cnccn4)nc(-c4cnccn4)c3)cc2)nn1`, the IC50 in the data set with HCT-116, in the data set on K562, in the data set on U-251, with MCF7 [3] and in the data set with PANC-1 [4] was greater than 25000 nM throughout.

As for `c1ccc(-c2cccc(-c3cccnc3)n2)nc1`, the IC50 at 4 h in data set [1] was 35100 nM.

Regarding `CCCCCCCCCCCCc1cn(-c2ccc(-c3cc(-c4ccccn4)nc(-c4ccccn4)c3)cc2)nn1`, the IC50 in the data set on HCT-116 is 13500 nM; in the data set on K562 it was 19800 nM; in the data set on U-251, 20400 nM; with MCF7 [3] it was 11200 nM; in the data set on NHDF, 9070 nM; in the data set with PANC-1 [4], greater than 25000 nM.

Consider `Clc1cc(-c2cccnc2)nc(-c2ccccn2)c1`, for which, in data set [1], the IC50 at 4 h is 26500 nM.

As for `CCCCCOc1ccc(-c2cn(-c3ccc(-c4cc(-c5ccccn5)nc(-c5ccccn5)c4)cc3)nn2)cc1`, the IC50 in the data set on HCT-116 is 491 nM; in the data set with K562 it was 1790 nM; with U-251, 609 nM; in the data set on MCF7 [3], 871 nM; in the data set on NHDF it was greater than 25000 nM; in the data set on PANC-1 [4] it was 374 nM.

As to `c1ccc(-c2cc(-c3ccc(-n4cc(-c5ccc(-c6cccs6)s5)nn4)cc3)cc(-c3ccccn3)n2)nc1`, the IC50 in the data set with HCT-116 was 822 nM; in the data set with K562, 1950 nM; in the data set with U-251, 3590 nM; in the data set with MCF7 [3], 1790 nM; with NHDF, greater than 25000 nM; in the data set on PANC-1 [4], 2220 nM.

Consider `CCCCCCCCn1c2ccccc2c2cc(-c3cn(-c4ccc(-c5cc(-c6ccccn6)nc(-c6ccccn6)c5)cc4)nn3)ccc21`, for which the IC50 in the data set with HCT-116 was 6260 nM; in the data set on K562, 5500 nM; with U-251, 10100 nM; in the data set with MCF7 [3], 9960 nM; in the data set with NHDF it was greater than 25000 nM; with PANC-1 [4] it was 3590 nM.

As for `Cc1ccc(NC(=O)c2ccc(CN3CCN(C)CC3)cc2)cc1Nc1nccc(-c2cccnc2)n1` [IMATINIB], the “fold change (FC)” value in the data set on PANC-1 [6] stood at 2.

Turning to `N#Cc1ccc(-c2cn(-c3ccc(-c4cc(-c5ccccn5)nc(-c5ccccn5)c4)cc3)nn2)cc1`, the IC50 is 1310 nM with HCT-116; 1570 nM in the data set with K562; 1830 nM in the data set on U-251; 372 nM in the data set on MCF7 [3]; 2030 nM in the data set on NHDF; 920 nM in the data set with PANC-1 [4].

For `c1ccc(-c2cc(-c3ccc(-n4cc(-c5ccc6sc7ccccc7c6c5)nn4)cc3)cc(-c3ccccn3)n2)nc1`, the IC50 with HCT-116 was 918 nM; with K562, 7380 nM; in the data set with U-251 it was 2390 nM; in the data set with MCF7 [3], 1720 nM; in the data set on NHDF, greater than 25000 nM; with PANC-1 [4], 784 nM.

Take `CN(C)c1cc(-c2cccnc2)nc(-c2ccccn2)c1`: the IC50 at 4 h in [1] is 19600 nM.

For `COc1cc(-c2cccnc2)nc(-c2ccccn2)c1`, the IC50 at 4 h in data set [1] turned out to be 40900 nM.

As for `COc1cccc2c1C(=O)c1c(O)c3c(c(O)c1C2=O)C[C@@](O)(C(=O)CO)C[C@@H]3O[C@H]1C[C@H](N)[C@H](O)[C@H](C)O1` [DOXORUBICIN], the outcome with MCF7 [7] and with PANC-1 [8] was Active. In addition, the IC50 worked out at 19 nM in the data set on K562, 52 nM in the data set on U-251, 405 nM with MCF7 [3] and 137 nM in the data set with NHDF.
